Legend:
[1] = test system: bentonite-induced skin edema in mice; assay: Bentonite-induced skin edema in mice; type: in vivo; settings: mice, 2 mg/kg orally daily for 21 days
Excerpt: Mice were individually identified with an ear code and were kept in groups of 6 per cage (Makrolon: 47.6×22.7×14.5 cm). Each cage was individually labelled with the n^o. of the study, type of treatment, doses used and route of administration, as well as the name of the director of the study, number and gender of contained animals, date of arrival and of the beginning of the experiment.
The animals had free access to mouse standard chow (UAR A04C; Usine d'Alimentation Rationelle, 91360-Villemoisson sur Orge, Francia; lot nos. 70520 and 70722). Drinking water access was ad libitum. The water, supplied by the Compañia de Aguas de Sabadell, S.A., is routinely analysed for the presence of possible contaminants. The temperature in the animal rooms was 22±3° C., with sporadic peaks of 26° C.; air humidity was 60±10%, with sporadic peaks of 80%. Daily light (between 7:00 h and 19:00 h) and dark phases were installed automatically.
Upon arrival, all animals were allowed to rest in the facilities for 8 days before use in the experiment. Table 2 indicates the six random groups of 10 mice each were set for experimentation.
The diameter of both hind pads of all mice was measured at day 0 and set as the basal value. Edema was then induced by injecting s.c. 13.3 mg/ml bentonite in 0.03 ml PBS into the right food pad. The corresponding mice were given daily the different compounds orally for 21 days. The inflamed control group was given 0.2 ml PBS only. The diameter of hind pads, as well as the body weight, was then measured every other day.
In each experimental group the average value, the standard deviation (SD) and the standard error was determined for the two parameters studied (hind pad diameter and body weight). The factor variance analysis (FVA) was used to compare the values obtained in the different groups. Where statistically significant differences were observed, the Duncan-Kramer test for a p<0.05 was applied.
The area below the curves corresponding to the diameters of the right and left pads was calculated and the evolution of the difference between them were plotted (FIGS. 7 and 8). The anti-inflammatory capacity of the different substances was evaluated as the extent of inhibition of the inflammatory process that was calculated with the formula [formula]
where C is the area below the inflammed control group and T the area below the different treatment groups.

[2] = test system: PGE2 synthesis in human mucosal gastric biopsies; assay: Ex vivo PGE2 synthesis in human mucosal gastric biopsies
Description: The ability of the gastric mucosa to generate prostaglandins estimates total cyclooxygenase (COX) activity (COX-1 plus any COX-2). To measure ex vivo prostaglandin E2 (PGE2) synthesis, normal gastric mucosal biopsies were immediately placed in Ependorff tubes containing phosphate-buffered saline (PBS). […] Each mucosal gastric biopsy was cut into different pieces (about 1 mg weight) that were subsequently weighed and incubated in the absence or in the presence of the distinct agents indicated in the corresponding Table for 20 min at 37° C. in 200 μl Hepes-glucose buffer. Then cells were mucosal gastric samples were pelleted by centrifugation, lysed and intracellular PGE2 was measured using an enzyme immunoassay kit (Amersham Pharmacia Biotech, Buckinghamshire, UK) following the manufacturer's instructions. Prostaglandin synthesis is expressed as picograms of PGE2 synthesised per mg of tissue incubation. Each experiment corresponded to the use of one biopsy, in order to avoid variability among different biopsies. Normal volunteers without a previous pharmacological treatment were selected for these assays. The normal gastroduodenal mucosa was visually assessed by endoscopy.
Human mucosal gastric biopsies were cut into about 1 mg pieces, incubated with the indicted agents (10 μM) for 20 min at 37° C. in Hepes-glucose buffer, and then the intracellular content of PGE2 was determined as described in the Methods section. Untreated control samples were run in parallel. Data are shown as mean Values+S.D. from three independent experiments.

[3] = test system: PGE2 production in murine fibroblasts 3T3; assay: PGE2 measurement in 3T3 cells (enzyme immunoassay); type: cell-based, Mouse
Description: Cell culture. Human promyelocytic HL-60 cells and promonocytic U937 cells were grown in RPMI-1640 culture medium supplemented with 10% (v/v) heat-inactivated fetal calf serum, 2 mM L-glutamine, 100 units/ml penicillin and 24 μg/ml gentamicin. Mouse 3T3 fibroblasts were grown in Dulbecco's modified Eagle's medium (DMEM) supplemented with 10% (v/v) heat-inactivated fetal calf serum, 2 mM L-glutamine, 100 units/ml penicillin and 24 μg/ml gentamicin. Cells were incubated at 37° C. in a humidified atmosphere at 5% CO2 and 95% air.
Prostaglandin E2 (PGE2) measurement. 3T3 cells (1.5×10^5 in 100 μl in complete DMEM culture medium) were incubated overnight at 37° C. (5% CO2) in 96-well microtitre plates (tissue-culture grade). Then, the distinct agents were added in 100 μl complete DMEM culture medium for 20 min at 37° C. After washing thoroughly the cells with PBS, cells were lysed and intracellular PGE2 was measured using an enzyme immunoassay kit (Amersham Pharmacia Biotech, Buckinghamshire, UK) following the manufacturer's instructions. Data obtained in duplicate measurements were converted into actual amounts of PGE2 using a calibration curve run in parallel with defined amounts of PGE2.

L-selectin (CD62L) [4] = settings: literature value, González-Alvaro et al., J. Rheumatol., 23, 723 (1996); cited from earlier work
L-selectin (CD62L) [5] = assay: Cell surface expression of L-selectin in human neutrophils (immunofluorescence flow cytometry); type: cell-based; settings: converted from μg/ml values; read-out: IC50 for L-selectin down-regulation, corrected for molecular weight
Excerpt: Isolation and treatment of neutrophils.
Monoclonal antibodies. […] The antibodies are commercially available.
Immunofluorescence flow cytometry. […] Results were expressed as relative MFI (rMFI), such that
rMFI=(MFIagent×100)/MFImedium
Background fluorescence was substracted from all values.

Q: With `COc1ccc2c(c1)c(CC(=O)O)c(C)n2C(=O)c1ccc(Cl)cc1` [Indomethacin, reference compound] as the molecule, how does the “Area (area below the curve of difference between right and left pad diameter)” value [1] read?
A: The value was 6.6 ± 0.92 A.U.

Q: What about the “Inhibition of the inflammatory process” value ([1]; versus inflamed control) of the same molecule?
A: Its value is 15.3%.

Q: What about the “pg PGE2/mg (weight)” value ([2]; human mucosal gastric biopsies, agents 10 μM, 20 min at 37° C., Control 115 ± 26, mean ± S.D., three experiments) of the same molecule?
A: Its value is 7 ± 2 pg PGE2/mg.

Q: What about the “effect on mucosal PGE2 synthesis (in words)” value ([2]; normal mucosal gastric biopsies, ex vivo) of the same molecule?
A: The value was “completely blocked”.

Q: And the “pg PGE2 (intracellular)” value ([3]; 3T3 cells, 50 μM, 20 min at 37° C., Control 112 ± 21)?
A: Its value is 4 ± 2 pg.

Q: And the “effect on PGE2 production (in words)” value ([3]; 3T3 fibroblasts, ionomycin-induced PGE2)?
A: Its value is “almost completely inhibited”.

Q: Which results are given for `O=C(O)COC(=O)Cc1ccccc1Nc1c(Cl)cccc1Cl` [aceclofenac, reference compound]?
A: IC50 for L-selectin down-regulation (L-selectin (CD62L) [4]): 5 µg/mL; IC50 (L-selectin (CD62L) [5]): 14.1 µM
